Values quoted from earlier work in patent publication US7498354B2, “Pyrrolo[2,3-D]imidazoles for the treatment of hyperproliferative disorders” (OSI Pharmaceuticals, Inc., priority 2006, dated 2009).
Where a name gives a salt, the structure may show the parent alone.

Columns and labels:
[1] = tested on: MO7e human leukemia cells; settings: GM-CSF stimulation
[2] = tested on: MO7e human leukemia cells; settings: Kit ligand stimulation

Question: Which “GM-CSF stimulated growth of MO7e human leukemia cells” value [1] does the source give for `Cc1ccc(NC(=O)c2ccc(CN3CCN(C)CC3)cc2)cc1Nc1nccc(-c2cccnc2)n1` [Gleevec, imatinib mesylate] here?
Answer: The value was “not affected”.

Question: What about the “Kit ligand-stimulated growth of MO7e human leukemia cells” value [2] of the same compound?
Answer: Its value is “inhibited”.

Question: And the “apoptosis in Kit ligand-stimulated MO7e cells” value [2]?
Answer: The value was “induces apoptosis”.
